Values quoted from earlier work as cited in patent publication US11648213B2, “Transdermal therapeutic system containing asenapine” (LTS LOHMANN THERAPIE-SYSTEME AG, priority 2018, dated 2023).

Tests used:
[1] = in vivo
[2] = target: serotonin 5-HT2A receptors (Homo sapiens, UniProt P28223); conditions: antagonist
serotonin 5-HT2A receptors, sequence (P28223 whole entry): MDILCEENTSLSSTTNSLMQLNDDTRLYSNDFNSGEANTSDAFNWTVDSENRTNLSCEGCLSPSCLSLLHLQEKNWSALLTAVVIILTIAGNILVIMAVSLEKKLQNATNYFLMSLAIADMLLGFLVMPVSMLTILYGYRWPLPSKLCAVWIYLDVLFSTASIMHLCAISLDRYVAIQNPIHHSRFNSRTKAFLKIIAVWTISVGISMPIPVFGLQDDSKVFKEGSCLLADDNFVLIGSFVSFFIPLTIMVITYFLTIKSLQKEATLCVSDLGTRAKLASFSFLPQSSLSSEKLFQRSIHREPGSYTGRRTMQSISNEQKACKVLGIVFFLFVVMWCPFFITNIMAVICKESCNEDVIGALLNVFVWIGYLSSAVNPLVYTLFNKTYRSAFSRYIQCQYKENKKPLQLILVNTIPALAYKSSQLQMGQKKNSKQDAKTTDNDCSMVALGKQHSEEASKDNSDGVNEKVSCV

Somnolence and anxiety (very common), share of the patients [1]: ≥ 10%
affinity to serotonin 5-HT2A receptors [2]: high affinity
terminal disposition half-life (following sublingual administration, therapeutic doses): ≥ 24 h
bioavailability (if ingested): < 2%
Structure (SMILES): CN1C[C@H]2c3ccccc3Oc3ccc(Cl)cc3[C@@H]2C1 (relative stereo) [asenapine, (3aRS,12bRS)-rel-5-chloro-2,3,3a,12b-tetrahydro-2-methyl-1H-dibenz[2,3:6,7]oxepino[4,5-c]pyrrole]
